Organism: Rattus norvegicus
Assay: Open TG-GATES - Regimen: Single
Format: toxicity, organism-based, Sprague-Dawley
Design: regimen Single, gender Male, age 6 weeks
Settings: in vivo, po, 30 mg/kg, route gavage, dose level Low; for APTT / Bas / Eos / Fbg / Hb / Ht / Lym / MCH / MCHC / MCV / Mono / Neu / PT / Plat / RBC / Ret / WBC: tissue Blood; for KIDNEY_L / KIDNEY_R / KIDNEY_TOTAL: tissue Kidney; for LIVER: tissue Liver; for A/G / ALP / ALT / AST / BUN / CRE / Ca / Cl / DBIL / GLC / IP / K / LDH / Na / PL / RALB / TBIL / TC / TG / TP / gamma-GTP: tissue Plasma

Compound CCOC(=O)C(C)(C)Oc1ccc(Cl)cc1 [CLOFIBRATE] has a TERMINAL_BW (3 h) of 228.4 g, an APTT (3 h) of 19.1 s and a Bas (3 h) of 0%. It also gave an Eos (3 h) of 1%, a Fbg (3 h) of 234.4 mg/dL and a Hb (3 h) of 13.3 g/dL. It also gave a Ht (3 h) of 38.4%, a Lym (3 h) of 80.4% and an MCH (3 h) of 21.8 pg. It also gave an MCHC (3 h) of 34.6%, an MCV (3 h) of 62.9 fL and a Mono (3 h) of 2.6%. The Neu (3 h) was 15.6%, the PT (3 h) was 12.3 s and the Plat (3 h) was 121.4 x10_4/uL. It also gave an RBC (3 h) of 611.2 x10_4/ul, a Ret (3 h) of 7.5% and a WBC (3 h) of 87.8 x10_2/uL. For the same compound, the KIDNEY_L (3 h) was 1 g, the KIDNEY_R (3 h) was 1 g and the KIDNEY_TOTAL (3 h) was 2 g. For the same compound, the LIVER (3 h) was 10.5 g, the A/G (3 h) was 1.6 and the ALP (3 h) was 1038.6 IU/L. It also gave an ALT (3 h) of 38.8 IU/L, an AST (3 h) of 71 IU/L and a BUN (3 h) of 12.2 mg/dL. The CRE (3 h) was 0.3 mg/dL, the Ca (3 h) was 11.2 mg/dL and the Cl (3 h) was 102.4 meq/L. It also gave a DBIL (3 h) of 0.4 mg/dL, a GLC (3 h) of 199.2 mg/dL and an IP (3 h) of 9 mg/dL. It also gave a K (3 h) of 3.9 meq/L, an LDH (3 h) of 199.6 IU/L and a Na (3 h) of 139.6 meq/L. For the same compound, the PL (3 h) was 178.4 mg/dL, the RALB (3 h) was 3.4 g/dL and the TBIL (3 h) was 0.4 mg/dL. For the same compound, the TC (3 h) was 84 mg/dL, the TG (3 h) was 194 mg/dL and the TP (3 h) was 5.6 g/dL. It also gave a gamma-GTP (3 h) of 1.2 IU/L, a TERMINAL_BW (6 h) of 224.5 g and an APTT (6 h) of 18.6 s. For the same compound, the Bas (6 h) was 0%, the Eos (6 h) was 1% and the Fbg (6 h) was 230 mg/dL. It also gave a Hb (6 h) of 13.5 g/dL, a Ht (6 h) of 38.9% and a Lym (6 h) of 78.4%. It also gave an MCH (6 h) of 21.7 pg, an MCHC (6 h) of 34.7% and an MCV (6 h) of 62.5 fL. The Mono (6 h) was 2.6%, the Neu (6 h) was 17.2% and the PT (6 h) was 12.3 s. The Plat (6 h) was 125.7 x10_4/uL, the RBC (6 h) was 623.2 x10_4/ul and the Ret (6 h) was 7.3%. The WBC (6 h) was 115.7 x10_2/uL, the KIDNEY_L (6 h) was 1 g and the KIDNEY_R (6 h) was 1 g. For the same compound, the KIDNEY_TOTAL (6 h) was 1.9 g, the LIVER (6 h) was 9.8 g and the A/G (6 h) was 1.6. The ALP (6 h) was 1119.8 IU/L, the ALT (6 h) was 35.4 IU/L and the AST (6 h) was 69.2 IU/L. For the same compound, the BUN (6 h) was 7.8 mg/dL, the CRE (6 h) was 0.4 mg/dL and the Ca (6 h) was 10.7 mg/dL. The Cl (6 h) was 103.8 meq/L, the DBIL (6 h) was 0.1 mg/dL and the GLC (6 h) was 194.6 mg/dL. The IP (6 h) was 9 mg/dL, the K (6 h) was 4 meq/L and the LDH (6 h) was 273 IU/L. The Na (6 h) was 140.8 meq/L, the PL (6 h) was 143.6 mg/dL and the RALB (6 h) was 3.5 g/dL. It also gave a TBIL (6 h) of 0.2 mg/dL, a TC (6 h) of 73 mg/dL and a TG (6 h) of 88 mg/dL. It also gave a TP (6 h) of 5.7 g/dL, a gamma-GTP (6 h) of 1.4 IU/L and a TERMINAL_BW (9 h) of 223 g. It also gave an APTT (9 h) of 18.8 s, a Bas (9 h) of 0% and an Eos (9 h) of 1%. It also gave a Fbg (9 h) of 228.4 mg/dL, a Hb (9 h) of 13.2 g/dL and a Ht (9 h) of 37.7%. For the same compound, the Lym (9 h) was 79.8%, the MCH (9 h) was 21.5 pg and the MCHC (9 h) was 34.9%. It also gave an MCV (9 h) of 61.7 fL, a Mono (9 h) of 3.2% and a Neu (9 h) of 15.8%. The PT (9 h) was 12.8 s, the Plat (9 h) was 137.4 x10_4/uL and the RBC (9 h) was 611.4 x10_4/ul. It also gave a Ret (9 h) of 7.4%, a WBC (9 h) of 101.8 x10_2/uL and a KIDNEY_L (9 h) of 1 g. For the same compound, the KIDNEY_R (9 h) was 1 g, the KIDNEY_TOTAL (9 h) was 1.9 g and the LIVER (9 h) was 9.1 g. The A/G (9 h) was 1.6, the ALP (9 h) was 814.2 IU/L and the ALT (9 h) was 27.6 IU/L. It also gave an AST (9 h) of 61.4 IU/L, a BUN (9 h) of 11.2 mg/dL and a CRE (9 h) of 0.4 mg/dL. For the same compound, the Ca (9 h) was 10.5 mg/dL, the Cl (9 h) was 101.6 meq/L and the DBIL (9 h) was 0.076 mg/dL. For the same compound, the GLC (9 h) was 216 mg/dL, the IP (9 h) was 11.1 mg/dL and the K (9 h) was 3.9 meq/L. The LDH (9 h) was 238.8 IU/L, the Na (9 h) was 140.2 meq/L and the PL (9 h) was 127.2 mg/dL. The RALB (9 h) was 3.4 g/dL, the TBIL (9 h) was 0.1 mg/dL and the TC (9 h) was 65.2 mg/dL. It also gave a TG (9 h) of 54.2 mg/dL, a TP (9 h) of 5.5 g/dL and a gamma-GTP (9 h) of 1 IU/L. For the same compound, the TERMINAL_BW (24 h) was 238.3 g, the APTT (24 h) was 20.6 s and the Bas (24 h) was 0%. For the same compound, the Eos (24 h) was 1%, the Fbg (24 h) was 215.6 mg/dL and the Hb (24 h) was 13.5 g/dL. It also gave a Ht (24 h) of 39%, a Lym (24 h) of 82% and an MCH (24 h) of 21.8 pg. It also gave an MCHC (24 h) of 34.8%, an MCV (24 h) of 62.7 fL and a Mono (24 h) of 2.8%. For the same compound, the Neu (24 h) was 13.6%, the PT (24 h) was 12.6 s and the Plat (24 h) was 123.8 x10_4/uL. The RBC (24 h) was 620.8 x10_4/ul, the Ret (24 h) was 6.6% and the WBC (24 h) was 103.6 x10_2/uL. It also gave a KIDNEY_L (24 h) of 1 g, a KIDNEY_R (24 h) of 1 g and a KIDNEY_TOTAL (24 h) of 2 g. For the same compound, the LIVER (24 h) was 11.1 g, the A/G (24 h) was 1.7 and the ALP (24 h) was 1108.2 IU/L. The ALT (24 h) was 34.2 IU/L, the AST (24 h) was 66.4 IU/L and the BUN (24 h) was 13.8 mg/dL. It also gave a CRE (24 h) of 0.4 mg/dL, a Ca (24 h) of 10.8 mg/dL and a Cl (24 h) of 102.8 meq/L. It also gave a DBIL (24 h) of 0.084 mg/dL, a GLC (24 h) of 203.8 mg/dL and an IP (24 h) of 7.1 mg/dL. For the same compound, the K (24 h) was 3.9 meq/L, the LDH (24 h) was 243 IU/L and the Na (24 h) was 140.6 meq/L. The PL (24 h) was 141 mg/dL, the RALB (24 h) was 3.4 g/dL and the TBIL (24 h) was 0.1 mg/dL. The TC (24 h) was 65 mg/dL, the TG (24 h) was 110.4 mg/dL and the TP (24 h) was 5.5 g/dL. It also gave a gamma-GTP (24 h) of 0.6 IU/L.
